Experimental data taken from US20140058103A1, “Inhibitors of PI3K-Delta and Methods of Their Use and Manufacture” (Exelixis, Inc., priority 2010, published 2014).

Molecular target: PI3K delta (Homo sapiens, UniProt O00329)
Assay: Luciferase-coupled chemiluminescence kinase assay (ATP consumption, KinaseGlo)
Format: biochemical
Summary of the method: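 Compound, kinase and ATP (≤ KM) reacted 2 h at ambient temperature, then remaining ATP quantified with luciferase-luciferin (KinaseGlo) luminescence as percent consumed.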

Chain of PI3K delta (O00329 whole entry): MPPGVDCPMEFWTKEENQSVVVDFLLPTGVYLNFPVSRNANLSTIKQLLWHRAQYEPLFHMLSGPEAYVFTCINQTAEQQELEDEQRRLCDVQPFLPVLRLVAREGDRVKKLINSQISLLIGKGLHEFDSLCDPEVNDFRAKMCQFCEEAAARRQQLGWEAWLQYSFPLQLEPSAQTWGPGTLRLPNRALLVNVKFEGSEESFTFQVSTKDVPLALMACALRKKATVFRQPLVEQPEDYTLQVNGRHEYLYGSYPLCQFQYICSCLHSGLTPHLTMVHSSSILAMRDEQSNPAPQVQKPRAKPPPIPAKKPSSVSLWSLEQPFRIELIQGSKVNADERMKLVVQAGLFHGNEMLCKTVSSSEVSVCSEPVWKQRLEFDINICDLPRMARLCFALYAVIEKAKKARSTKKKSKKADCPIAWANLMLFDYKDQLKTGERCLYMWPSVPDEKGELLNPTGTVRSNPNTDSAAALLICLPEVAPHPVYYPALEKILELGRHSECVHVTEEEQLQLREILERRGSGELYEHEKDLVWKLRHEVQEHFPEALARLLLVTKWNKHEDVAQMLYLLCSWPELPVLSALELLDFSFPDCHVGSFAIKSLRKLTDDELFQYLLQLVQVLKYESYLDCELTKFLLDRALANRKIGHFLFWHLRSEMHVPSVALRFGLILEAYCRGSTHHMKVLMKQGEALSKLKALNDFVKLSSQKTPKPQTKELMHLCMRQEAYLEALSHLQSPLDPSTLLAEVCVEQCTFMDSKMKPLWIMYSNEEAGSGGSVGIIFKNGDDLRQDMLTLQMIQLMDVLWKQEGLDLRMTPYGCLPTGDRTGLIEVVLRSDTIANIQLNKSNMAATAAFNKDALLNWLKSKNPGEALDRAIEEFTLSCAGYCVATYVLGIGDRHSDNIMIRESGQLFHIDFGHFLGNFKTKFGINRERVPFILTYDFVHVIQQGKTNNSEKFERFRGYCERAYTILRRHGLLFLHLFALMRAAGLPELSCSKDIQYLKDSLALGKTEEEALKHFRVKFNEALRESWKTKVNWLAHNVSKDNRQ
Chain of PI3K delta (P27986 whole entry partner): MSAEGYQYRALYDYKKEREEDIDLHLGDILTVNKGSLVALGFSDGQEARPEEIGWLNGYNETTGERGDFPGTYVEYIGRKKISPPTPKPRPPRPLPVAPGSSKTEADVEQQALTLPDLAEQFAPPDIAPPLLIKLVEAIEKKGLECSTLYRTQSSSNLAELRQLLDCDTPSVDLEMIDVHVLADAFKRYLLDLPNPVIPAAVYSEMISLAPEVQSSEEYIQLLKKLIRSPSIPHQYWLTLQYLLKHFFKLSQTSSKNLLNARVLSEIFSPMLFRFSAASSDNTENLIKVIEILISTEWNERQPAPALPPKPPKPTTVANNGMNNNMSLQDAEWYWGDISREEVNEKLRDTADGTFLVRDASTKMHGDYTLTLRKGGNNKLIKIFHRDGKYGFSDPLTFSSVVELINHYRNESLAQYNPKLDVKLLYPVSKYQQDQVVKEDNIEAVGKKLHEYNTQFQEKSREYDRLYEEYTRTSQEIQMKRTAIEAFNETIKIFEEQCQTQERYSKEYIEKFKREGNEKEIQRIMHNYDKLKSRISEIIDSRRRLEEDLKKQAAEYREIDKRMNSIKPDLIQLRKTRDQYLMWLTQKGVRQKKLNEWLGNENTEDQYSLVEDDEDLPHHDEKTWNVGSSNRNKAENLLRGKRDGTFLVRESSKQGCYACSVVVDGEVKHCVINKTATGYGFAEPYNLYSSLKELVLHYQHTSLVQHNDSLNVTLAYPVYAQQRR

Structure (SMILES)	IC50
Cn1c(C(=O)N2CC[C@@H](F)C2)nc2c(N3CCC4(CC3)C(=O)Nc3ccccc34)ncnc21 [Compound 110, 1′-(8-{[(3R)-3-fluoropyrrolidin-1-yl]carbonyl}-9-methyl-9H-purin-6-yl)spiro[indole-3,4′-piperidin]-2(1H)-one]	0.05 to 0.25 µM
Cn1c(C(=O)N[C@H]2CC[C@H](O)CC2)nc2c(N3CCC(n4c(=O)[nH]c5ccccc54)CC3)ncnc21 [Compound 111, N-(trans-4-hydroxycyclohexyl)-9-methyl-6-[4-(2-oxo-2,3-dihydro-1H-benzimidazol-1-yl)piperidin-1-yl]-9H-purine-8-carboxamide]	< 0.05 µM
CCCC(=O)c1nc2c(N3CCC(n4c(=O)[nH]c5ccccc54)CC3)ncnc2n1C [Compound 113, 1-[1-(8-butanoyl-9-methyl-9H-purin-6-yl)piperidin-4-yl]-1,3-dihydro-2H-benzimidazol-2-one]	0.05 to 0.25 µM
CCc1nnc(-c2nc3c(N4CCC(n5c(=O)[nH]c6ccccc65)CC4)ncnc3n2C)o1 [Compound 114, 1-{1-[8-(5-ethyl-1,3,4-oxadiazol-2-yl)-9-methyl-9H-purin-6-yl]piperidin-4-yl}-1,3-dihydro-2H-benzimidazol-2-one]	< 0.05 µM
Cc1ccc(-c2nc3c(N4CCC(n5c(=O)[nH]c6ccccc65)CC4)ncnc3n2C)o1 [Compound 115, 1-{1-[9-methyl-8-(5-methylfuran-2-yl)-9H-purin-6-yl]piperidin-4-yl}-1,3-dihydro-2H-benzimidazol-2-one]	0.25 to 0.5 µM
Cn1c(-c2ccco2)nc2c(N3CCC(n4c(=O)[nH]c5ccccc54)CC3)ncnc21 [Compound 116, 1-[1-(8-furan-2-yl-9-methyl-9H-purin-6-yl)piperidin-4-yl]-1,3-dihydro-2H-benzimidazol-2-one]	0.25 to 0.5 µM
Cn1c(C(=O)NCC2CC2)nc2c(N3CCC(N4C(=O)Cc5ccccc54)CC3)ncnc21 [Compound 117, N-(cyclopropylmethyl)-9-methyl-6-[4-(2-oxo-2,3-dihydro-1H-indol-1-yl)piperidin-1-yl]-9H-purine-8-carboxamide]	0.05 to 0.25 µM
Cn1c(C(=O)NCC2CC2)nc2c(N3CCC(n4c(=O)oc5ccccc54)CC3)ncnc21 [Compound 118, N-(cyclopropylmethyl)-9-methyl-6-[4-(2-oxo-1,3-benzoxazol-3(2H)-yl)piperidin-1-yl]-9H-purine-8-carboxamide]	0.05 to 0.25 µM
Cn1c(C(=O)NCC2CC2)nc2c(N3CCC4(CC3)CC(=O)c3ccccc34)ncnc21 [Compound 119, N-(cyclopropylmethyl)-9-methyl-6-(3-oxo-2,3-dihydro-1′H-spiro[indene-1,4′-piperidin]-1′-yl)-9H-purine-8-carboxamide]	0.25 to 0.5 µM
Cn1c(C(=O)NCC2CC2)nc2c(N3CCC4(CC3)C(=O)Cc3ccccc34)ncnc21 [Compound 120, N-(cyclopropylmethyl)-9-methyl-6-(2-oxo-2,3-dihydro-1′H-spiro[indene-1,4′-piperidin]-1′-yl)-9H-purine-8-carboxamide]	0.05 to 0.25 µM
Cn1c(C(=O)NCC2CC2)nc2c(N3CCC(n4ccc5ccccc54)CC3)ncnc21 [Compound 121, N-(cyclopropylmethyl)-6-[4-(1H-indol-1-yl)piperidin-1-yl]-9-methyl-9H-purine-8-carboxamide]	0.5 to 1.5 µM
CC(C)c1nnc(-c2nc3c(N4CCC(n5c(=O)[nH]c6ccccc65)CC4)ncnc3n2C)o1 [Compound 122, 1-(1-{9-methyl-8-[5-(1-methylethyl)-1,3,4-oxadiazol-2-yl]-9H-purin-6-yl}piperidin-4-yl)-1,3-dihydro-2H-benzimidazol-2-one]	< 0.05 µM
CCCc1nnc(-c2nc3c(N4CCC(n5c(=O)[nH]c6ccccc65)CC4)ncnc3n2C)o1 [Compound 123, 1-{1-[9-methyl-8-(5-propyl-1,3,4-oxadiazol-2-yl)-9H-purin-6-yl]piperidin-4-yl}-1,3-dihydro-2H-benzimidazol-2-one]	< 0.05 µM
Cn1c(-n2ccnc2)nc2c(N3CCC(n4c(=O)[nH]c5ccccc54)CC3)ncnc21 [Compound 124, 1-{1-[8-(1H-Imidazol-1-yl)-9-methyl-9H-purin-6-yl]piperidin-4-yl}-1,3-dihydro-2H-benzimidazol-2-one]	0.05 to 0.25 µM
Cn1c(-c2nnc(C3CC3)o2)nc2c(N3CCC(n4c(=O)[nH]c5ccccc54)CC3)ncnc21 [Compound 125, 1-{1-[8-(5-cyclopropyl-1,3,4-oxadiazol-2-yl)-9-methyl-9H-purin-6-yl]piperidin-4-yl}-1,3-dihydro-2H-benzimidazol-2-one]	< 0.05 µM
Cn1c(N2CCCC2)nc2c(N3CCC(n4c(=O)[nH]c5ccccc54)CC3)ncnc21 [Compound 126, 1-[1-(9-methyl-8-pyrrolidin-1-yl-9H-purin-6-yl)piperidin-4-yl]-1,3-dihydro-2H-benzimidazol-2-one]	0.5 to 1.5 µM
Cn1c(-n2cccc2)nc2c(N3CCC(n4c(=O)[nH]c5ccccc54)CC3)ncnc21 [Compound 127, 1-{1-[9-methyl-8-(1H-pyrrol-1-yl)-9H-purin-6-yl]piperidin-4-yl}-1,3-dihydro-2H-benzimidazol-2-one]	0.5 to 1.5 µM

Structure (SMILES)	IC50
Cc1ccoc1-c1nc2c(N3CCC(n4c(=O)[nH]c5ccccc54)CC3)ncnc2n1C [Compound 128, 1-{1-[9-methyl-8-(3-methylfuran-2-yl)-9H-purin-6-yl]piperidin-4-yl}-1,3-dihydro-2H-benzimidazol-2-one]	0.25 to 0.5 µM
Cn1c(C(=O)NCC2CC2)nc2c(N3CCC4(CC3)C(=O)Oc3ccccc34)ncnc21 [Compound 129, N-(cyclopropylmethyl)-9-methyl-6-(2-oxo-1′H-spiro[1-benzofuran-3,4′-piperidin]-1′-yl)-9H-purine-8-carboxamide]	0.25 to 0.5 µM
Cn1c(C(=O)NCC2CC2)nc2c(N3CCC4(CC3)c3ccccc3CC4O)ncnc21 (stereo not drawn) [Compound 130, N-(cyclopropylmethyl)-6-(2-hydroxy-2,3-dihydro-1′H-spiro[indene-1,4′-piperidin]-1′-yl)-9-methyl-9H-purine-8-carboxamide]	0.05 to 0.25 µM
Cn1c(C(=O)NCC2CC2)nc2c(N3CCC4(CC3)OCc3ccccc34)ncnc21 [Compound 132, N-(cyclopropylmethyl)-9-methyl-6-(1′H,3H-spiro[2-benzofuran-1,4′-piperidin]-1′-yl)-9H-purine-8-carboxamide]	0.5 to 1.5 µM
Cn1c(C(=O)NCC2CC2)nc2c(N3CCC(N4c5ccccc5NS4(=O)=O)CC3)ncnc21 [Compound 133, N-(cyclopropylmethyl)-6-[4-(2,2-dioxido-2,1,3-benzothiadiazol-1(3H)-yl)piperidin-1-yl]-9-methyl-9H-purine-8-carboxamide]	0.05 to 0.25 µM
Cn1c(C(F)(F)F)nc2c(N3CCC(n4c(=O)[nH]c5ccccc54)CC3)ncnc21 [Compound 134, 1-{1-[9-Methyl-8-(trifluoromethyl)-9H-purin-6-yl]piperidin-4-yl}-1,3-dihydro-2H-benzimidazol-2-one]	0.25 to 0.5 µM
Cn1c(-c2cnco2)nc2c(N3CCC(n4c(=O)[nH]c5ccccc54)CC3)ncnc21 [Compound 135, 1-{1-[9-methyl-8-(1,3-oxazol-5-yl)-9H-purin-6-yl]piperidin-4-yl}-1,3-dihydro-2H-benzimidazol-2-one]	0.05 to 0.25 µM
CC(C)c1ccc2c(c1)C1(CCN(c3ncnc4c3nc(C(=O)NCC3CC3)n4C)CC1)C(=O)N2 [Compound 136, N-(cyclopropylmethyl)-9-methyl-6-[5-(1-methylethyl)-2-oxo-1,2-dihydro-1′H-spiro[indole-3,4′-piperidin]-1′-yl]-9H-purine-8-carboxamide]	0.5 to 1.5 µM
Cn1c(C(=O)NCC2CC2)nc2c(N3CC(n4c(=O)[nH]c5ccccc54)C3)ncnc21 [Compound 137, N-(cyclopropylmethyl)-9-methyl-6-[3-(2-oxo-2,3-dihydro-1H-benzimidazol-1-yl)azetidin-1-yl]-9H-purine-8-carboxamide]	0.05 to 0.25 µM
Cn1c(C(=O)NCC2CC2)nc2c(N3CCC4(CC3)OC(=O)c3ccccc34)ncnc21 [Compound 138, N-(cyclopropylmethyl)-9-methyl-6-(3-oxo-1′H,3H-spiro[2-benzofuran-1,4′-piperidin]-1′-yl)-9H-purine-8-carboxamide]	0.5 to 1.5 µM
C#CCNC(=O)c1nc2c(N3CCC(n4c(=O)[nH]c5ccccc54)CC3)ncnc2n1C [Compound 139, 9-methyl-6-[4-(2-oxo-2,3-dihydro-1H-benzimidazol-1-yl)piperidin-1-yl]-N-prop-2-yn-1-yl-9H-purine-8-carboxamide]	0.05 to 0.25 µM
C#CCNC(=O)c1nc2c(N3CCC4(CC3)C(=O)Nc3ccccc34)ncnc2n1C [Compound 140, 9-methyl-6-(2-oxo-1,2-dihydro-1′H-spiro[indole-3,4′-piperidin]-1′-yl)-N-prop-2-yn-1-yl-9H-purine-8-carboxamide]	0.05 to 0.25 µM
CN1C(=O)C2(CCN(c3ncnc4c3nc(C(=O)NCC3CC3)n4C)CC2)c2ccccc21 [Compound 141, N-(cyclopropylmethyl)-9-methyl-6-(1-methyl-2-oxo-1,2-dihydro-1′H-spiro[indole-3,4′-piperidin]-1′-yl)-9H-purine-8-carboxamide]	0.5 to 1.5 µM
Cn1c(C(=O)NCC2CC2)nc2c(N3CCC4(CC3)NC(=O)c3ccccc34)ncnc21 [Compound 142, N-(cyclopropylmethyl)-9-methyl-6-(3-oxo-2,3-dihydro-1′H-spiro[isoindole-1,4′-piperidir]-1′-yl)-9H-purine-8-carboxamide]	0.5 to 1.5 µM
Cn1c(C(=O)NCC2CC2)nc2c(N3CCC(n4nnc5ccccc54)CC3)ncnc21 [Compound 143, 6-[4-(1H-1,2,3-benzotriazol-1-yl)piperidin-1-yl]-N-(cyclopropylmethyl)-9-methyl-9H-purine-8-carboxamide]	0.5 to 1.5 µM
C/C=C/c1nc2c(N3CCC(n4c(=O)[nH]c5ccccc54)CC3)ncnc2n1C [Compound 144, 1-(1-{9-methyl-8-[(1E)-prop-1-en-1-yl]-9H-purin-6-yl}piperidin-4-yl)-1,3-dihydro-2H-benzimidazol-2-one]	0.5 to 1.5 µM
